Key:
human NaV1.6 [1] = target: T1, human NaV1.6 (Homo sapiens, UniProt Q9UQD0); experiment: Peak INa voltage-dependent block (VDB), PatchXpress patch clamp; assay type: cell-based; conditions: for IC50: hNaV1.6, half-inactivated (V1/2); for Ratio to Pers. INa (Peak INa VDB / persistent INa): hNaV1.6
T1 construct: stably expressing either human NaV1.6 (NP_055006); expressed in transfected cells
Protocol: (§1) HEK-293 cell lines stably expressing either human NaV1.6 (NP_055006), mouse NaV1.6 (NP_035453.2), or rat NaV1.6 (NP_062139) were used. All cells were seeded at 2×10^6 cells per Nunc T75 flask for 2 days in culture. At time of harvest for assays, the cell counts were approximately 6×10^6 cells. Cells were washed (1×) in DPBS (Hyclone, Cat #SH30028.03) for approximately 30 seconds. 1 mL of 1×0.05% Trypsin-EDTA (GIBCO Cat #25300-054) was added and swirled around to cover the bottom of the flask and was allowed to sit on the cells for approximately 4 minutes (±90% of the cells were lifted by light tapping of the flask). 10 mL of warmed media (DMEM high glucose media Hyclone, SH30022.02 supplemented with 10% Fetal Bovine Serum, 2 mM Sodium Pyruvate, 10 mM HEPES and 400 μg/mL G418) was added to inactivate the trypsin. Cells were triturated until a single cell suspension was achieved. A cell count was performed and cells were aliquoted into a 250 ml centrifuge tube at a concentration of 2×10^5/mL in +30 ml of prewarmed media. The 250 mL centrifuge tube was placed on a rocker in an incubator set at 28° C. and gently rocked for approximately 1 hour to allow cells to recover. Cell aliquots of 5 mL (1×10^6 cells) were placed in a 15 mL centrifuge tube and spun at 100×g for 2 minutes. Supernatant was removed leaving a cell pellet. 100 μL of external recording solution was added to the pellet and triturated 20 times to achieve a single cell suspension and then transferred to a 1.5 mL tube for placement in the PatchXpress® (Molecular Devices).
(§2) Compound 1 was provided as powder and prepared as 10 mM DMSO stocks in 1 dram glass vials prior to assay. Immediately prior to assay, Compound 1 was diluted with DMSO to 300×, the designated final assay concentration. Assay dilutions (1× concentration) were prepared by pipetting 3 μL of diluted Compound 1 into 897 μL of extracellular solution in a 1 mL glass shell vial. Vials were capped and vortexed until initiation of the PatchXpress® (Molecular Devices) recording protocol.
(§3) The same intracellular recording solution was used for the persistent and peak INa assays, which contained: 135 mM CsF, 10 mM CsCl, 5 mM NaCl, 10 mM HEPES, 5 mM EGTA at a pH of 7.4 (adjusted with CsOH) and a measured osmolarity of 298 mOsm (adjusted with mannitol). For the persistent INa assay, the external recording solution contained: 135 mM NaCl, 5.4 mM KCl, 5 mM glucose, 2 mM CaCl2), 1 mM MgCl2, 10 mM HEPES, and 200 nM ATX-II (sea anemone toxin, Alomone Labs; Jerusalem, Israel) at a pH of 7.4 (adjusted with NaOH) and a measured osmolarity of 300 mOsm (adjusted with mannitol). For the peak INa assays, the external recording solution contained: 100 mM NaCl, 35 mM NMDG, 5.4 mM KCl, 5 mM glucose, 2 mM CaCl2), 1 mM MgCl2, and 10 mM HEPES at a pH of 7.4 (adjusted with NaOH) and a measured osmolarity of 300 mOsm (adjusted with mannitol).
(§4) All studies were performed using the PatchXpress® (Molecular Devices) automated patch clamp platform (Molecular Devices) using the whole cell configuration. Recordings were performed at room temperature. Data were collected using Patch Commander software (Molecular Devices) and processed using DataXpress 2.0 (Molecular Devices). Cell acceptance criteria were continuously monitored by custom scripts during the recording. Acceptance criteria for all assays were: baseline peak INa>800 pA, Rseal>200 MΩ, and, where appropriate, persistent INa>100 pA. Compensation was 50% and leak subtraction was not used. Currents were filtered at 5 kHz and digitized at 32.5 kHz. Raccess and Rseal were monitored throughout the recording and cells with Raccess>10 MΩ or Rseal<200 MΩ were terminated automatically by script.
Voltage Dependent Block (VDB): VDB protocols used a depolarized voltage to keep channels in half-inactivated (resting) states. This allowed equilibrium binding and accurate determination of isoform selectivity (in the absence of biological features).

male CD-1 mice [2] = experiment: Maximal electroshock induced seizure (MES) test; assay type: in vivo, mouse; conditions: for protection (increase in latency) against MES-induced tonic hindlimb seizures, dose-response: Compound 1 0.3-10 mg/kg po; for ED50: mouse MES, read-out: Efficacy (MES) ED50, increasing latency to tonic extension seizures
Protocol: Food and water were available ad libitum.
VPA was prepared in saline (Vehicle 1). All solutions were protected from light. All compounds and vehicles were dosed at 10 ml/kg.
The MES test was carried out over two days with 6 of 12 mice from each treatment group being tested on each day. Mice were brought to the test room at least one hour before the start of the experiment.
A Grass S88x (Grass Technologies of Astro-Med, Inc., West Warwick, RI) Stimulus Isolation Unit (A385, WPI Inc., USA) was set to deliver a 50 mA square-wave stimulus, with a 0.8 second duration, a pulse width of 10 msec, and a frequency of 50 Hz. A pair of custom stainless steel electrodes were soaked in 0.2% Agar, and then the subject received bilateral transauricular stimulation through ear-clip electrodes. During the stimulation, mice were manually restrained. They were then released into the observation cage for convulsion observation for 60 seconds immediately after stimulation. Each mouse was observed continuously by individuals blinded to treatment conditions and results were recorded.
Anti-seizure assessment endpoints were: (1) latency of hindlimb tonic flexion; (2) latency of hindlimb tonic extension; (3) total #hindlimb tonic flexions; (4) total #hindlimb tonic extensions; (5) latency to death; and (6) mortality rate
From these fitted curves, ED50 and EC50 values were calculated.

human NaV1.6 [3] = target: T1, human NaV1.6; experiment: Peak INa tonic block (TB), PatchXpress patch clamp; assay type: cell-based; conditions: for IC50: hNaV1.6, 0.1 Hz, resting state
Protocol: as §1, §2, §3, §4
Tonic Block (TB): Tonic Block (TB) protocols used low stimulation rates (about 0.1 Hz) and negative potentials (−120 mV) to keep channels in closed (resting) states. Pharmacology was measured during peak INa in response to step to 0 mV. No leak subtraction was used.

human NaV1.6 [4] = target: T1, human NaV1.6; experiment: ATX-II activated late (persistent) INa block, PatchXpress patch clamp; assay type: cell-based; conditions: for IC50: hNaV1.6, ATX-II-evoked, holding −120 mV
Protocol: as §1, §2, §3, §4
Late (persistent) current Block: The inhibition of ATX-II activated late current was measured using a 200 ms voltage step to 0 mV. Protocols used low stimulation rates (about 0.1 Hz) and negative potentials (−120 mV) to keep channels in closed (resting) states.

male CD-1 mice [5] = experiment: Spontaneous locomotor activity (sLMA) test; conditions: for sLMA distance moved, dose-response: Compound 1 10-40 mg/kg po; for Tolerability (sLMA) TD50: dose reducing sLMA by 50%
Protocol: Male CD-1 mice, 6-weeks old, were obtained from Vital River (Beijing, China). The average body weight was 25-35 g at the time the experiments were carried out. The mice were housed in groups of 3-5 under controlled conditions (temperature: 20-26° C.; humidity: 40-70%; air exchange rate: 10-15 cycles/hour; 12:12 light-dark cycle with lights on at 5:00 a.m.). Food and water were available ad libitum. The mice were acclimated to these conditions for 6 days before the start of the studies.
Dosing solutions were prepared on each experiment day. […] All solutions were protected from light. Samples from dosing solutions were stored at 4° C. Both compound and vehicle were dosed at 10 ml/kg.
The sLMA test was carried out over two days. 5 of 10 mice from each treatment group were tested on each day. All animals were marked on the tail with a permanent marker and weighed. Mice were randomly assigned into one of the four treatment groups. Animals were acclimated to the test room at least 30 minutes before the start of the experiment.
Possible side effects, such as overt sedation, were recorded just before the start of the sLMA test.
Each mouse was automatically tracked with overhead cameras using a 1-minute sampling window in an isolated chamber. Spontaneous locomotor activity was then analyzed offline using the Animal Behavior Video Tracking Analysis System (Ji Liang Software Technology Co., Ltd., Shanghai, China).
Locomotor status was defined as >2 mm of movement in every 200 ms (Frame-rate recorded was 20 frames/second. Locomotor status was identified in every 4 frame-to-frame interval. The accumulated shift of tracking spots that exceeded 2 mm in every 4 frame intervals was identified as a locomotor epoch). Traveling distance was calculated automatically from all the locomotion epochs and analyzed.
All mice were anesthetized with CO2. Then, terminal plasma and brain tissue samples were collected from animals in the drug treatment groups. 500 μL whole blood was collected via cardiac puncture and placed in tubes with 10 μL EDTAK2. The tubes were then placed in wet ice until centrifuged at 2000 g for 5 minutes at 4° C. The supernatant plasma was pipetted into Eppendorf tubes.
All statistical analyses were conducted using GraphPad Prism 7.0. Data are presented as mean±s.e.m., and p<0.05 was regarded as statistically significant.
Dose-response and concentration-response curves for plasma and brain were fitted for each end-point using GraphPad Prism. From these fitted curves, TD50 and TC50 values were calculated.

human NaV1.6 [6] = target: T1, human NaV1.6; experiment: Peak INa use-dependent block (UDB-10 Hz), PatchXpress patch clamp; assay type: cell-based
[7] = in vivo
From the text: (§5) This was a 2-part randomized, placebo-controlled Phase 1 trial in healthy participants aged 18-55 years. […] PD effects were examined on quantitative EEG (qEEG; resting and vigilant conditions) and stimulated EEG using auditory steady state response (ASSR). A total of 48 participants were enrolled; Part A, n=30; Part B, n=18.

healthy participants = experiment: 2-part Phase 1 trial (28 days; OXC combination): safety and tolerability; assay type: in vivo, human; conditions: Part B, per arm
From the text: as §5

T1 sequence (Q9UQD0 whole entry): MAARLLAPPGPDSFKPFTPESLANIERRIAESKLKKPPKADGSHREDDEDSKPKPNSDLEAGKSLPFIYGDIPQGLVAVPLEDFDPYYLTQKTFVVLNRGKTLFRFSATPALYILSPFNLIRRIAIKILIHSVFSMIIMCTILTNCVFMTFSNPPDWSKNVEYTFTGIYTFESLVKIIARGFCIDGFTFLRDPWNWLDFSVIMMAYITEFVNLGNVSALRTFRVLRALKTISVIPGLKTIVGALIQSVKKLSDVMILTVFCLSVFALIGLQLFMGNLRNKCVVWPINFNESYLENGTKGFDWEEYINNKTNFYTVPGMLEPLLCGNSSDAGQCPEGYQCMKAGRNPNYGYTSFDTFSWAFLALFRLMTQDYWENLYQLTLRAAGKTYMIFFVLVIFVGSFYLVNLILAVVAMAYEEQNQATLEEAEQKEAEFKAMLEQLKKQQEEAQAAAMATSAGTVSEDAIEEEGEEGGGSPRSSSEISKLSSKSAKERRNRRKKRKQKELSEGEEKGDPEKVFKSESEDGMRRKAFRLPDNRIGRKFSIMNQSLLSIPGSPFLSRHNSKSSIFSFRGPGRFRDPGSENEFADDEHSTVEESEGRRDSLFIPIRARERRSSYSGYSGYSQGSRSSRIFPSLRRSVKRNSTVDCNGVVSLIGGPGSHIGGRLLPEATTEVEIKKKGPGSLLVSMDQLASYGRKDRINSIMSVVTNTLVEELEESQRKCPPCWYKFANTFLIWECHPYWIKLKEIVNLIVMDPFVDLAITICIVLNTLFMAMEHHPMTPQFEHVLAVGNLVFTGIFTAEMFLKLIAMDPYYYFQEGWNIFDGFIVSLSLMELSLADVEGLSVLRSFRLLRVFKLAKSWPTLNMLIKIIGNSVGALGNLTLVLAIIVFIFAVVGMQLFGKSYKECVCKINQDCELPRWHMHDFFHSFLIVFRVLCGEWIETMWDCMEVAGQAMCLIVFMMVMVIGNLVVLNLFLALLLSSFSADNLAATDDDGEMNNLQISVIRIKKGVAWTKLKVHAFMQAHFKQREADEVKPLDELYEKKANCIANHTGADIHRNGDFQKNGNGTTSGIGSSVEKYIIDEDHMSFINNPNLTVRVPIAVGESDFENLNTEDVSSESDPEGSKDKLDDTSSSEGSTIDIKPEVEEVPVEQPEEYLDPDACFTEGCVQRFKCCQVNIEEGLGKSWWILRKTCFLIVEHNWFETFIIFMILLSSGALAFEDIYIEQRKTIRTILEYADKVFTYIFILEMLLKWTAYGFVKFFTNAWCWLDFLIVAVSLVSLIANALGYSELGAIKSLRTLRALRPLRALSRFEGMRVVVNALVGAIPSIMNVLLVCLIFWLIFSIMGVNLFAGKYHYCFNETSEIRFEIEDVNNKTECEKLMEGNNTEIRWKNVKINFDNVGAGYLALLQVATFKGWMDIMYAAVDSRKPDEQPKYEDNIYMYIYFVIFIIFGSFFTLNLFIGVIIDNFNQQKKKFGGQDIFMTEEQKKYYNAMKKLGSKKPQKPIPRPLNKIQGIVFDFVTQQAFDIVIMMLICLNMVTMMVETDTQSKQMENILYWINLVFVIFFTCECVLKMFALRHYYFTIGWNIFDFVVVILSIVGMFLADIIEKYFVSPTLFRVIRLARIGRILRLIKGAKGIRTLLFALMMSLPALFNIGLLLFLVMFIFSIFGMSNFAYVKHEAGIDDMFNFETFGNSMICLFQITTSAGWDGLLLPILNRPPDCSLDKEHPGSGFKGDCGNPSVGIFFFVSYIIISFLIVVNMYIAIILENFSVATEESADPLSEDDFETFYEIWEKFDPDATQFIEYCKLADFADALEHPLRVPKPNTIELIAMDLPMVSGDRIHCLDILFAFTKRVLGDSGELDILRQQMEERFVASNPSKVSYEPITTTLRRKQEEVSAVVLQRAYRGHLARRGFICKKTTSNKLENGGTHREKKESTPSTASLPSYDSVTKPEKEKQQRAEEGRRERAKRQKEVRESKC

Q: With `NC(=O)N1c2ccccc2C=Cc2ccccc21` [Carbamazepine, reference compound] as the compound, how does the IC50 (human NaV1.6 [1]) read?
A: 44.4 µM

Q: And the “mice protected against MES-induced tonic hindlimb seizures” value (male CD-1 mice [2]; CBZ 30 mg/kg)?
A: all mice

Q: What about the “protection (increase in latency) against MES-induced tonic hindlimb seizures, dose-response” value (male CD-1 mice [2]) of the same compound?
A: dose-dependent protection

Q: And the ED50 (male CD-1 mice [2])?
A: 5 mg/kg

Q: And the IC50 (human NaV1.6 [3])?
A: 2310 µM

Q: What about the IC50 (human NaV1.6 [4]) of the same compound?
A: 77.5 µM

Q: And the “sLMA at the dose required for complete seizure prevention” value (male CD-1 mice [5]; CBZ)?
A: significant reduction

Q: What about the “sLMA distance moved, dose-response” value (male CD-1 mice [5]) of the same compound?
A: dose-dependent reductions

Q: What about the “PI (Brain)” value (male CD-1 mice [5]; brain TC50 (sLMA) / brain EC50 (MES), free concentrations) of the same compound?
A: 5.9

Q: And the “Tolerability (sLMA) TD50” value (male CD-1 mice [5])?
A: 37.6 mg/kg

Q: And the “PI (Plasma)” value (male CD-1 mice [5]; plasma TC50 (sLMA) / plasma EC50 (MES), free concentrations)?
A: 3.4

Q: What about the IC50 (human NaV1.6 [6]; hNaV1.6, 10 Hz) of the same compound?
A: 1420 µM

Q: What about the “use-dependent block at stimulation frequency of 10 Hz” value (human NaV1.6 [6]; hNaV1.6, 10 Hz) of the same compound?
A: not observed

Q: And the “use-dependent block at increased frequencies” value (human NaV1.6 [6]; hNaV1.6, 10 Hz, 30 Hz or 50 Hz)?
A: could be observed

Q: Which “exposure when administered concomitantly with Compound 1 vs alone” value [7] does the source give for `NC(=O)N1c2ccccc2CC(O)c2ccccc21` (stereo not shown) [10-Hydroxycarbamezapine] here?
A: appeared to be similar

Q: For `CCCC(CCC)C(=O)O` [Valproic acid], which inhibition at 1000 µM (human NaV1.6 [3]; hNaV1.6, 1 mM) is on record?
A: 11%

Q: What about the inhibition at 1000 µM (human NaV1.6 [4]; hNaV1.6, 1 mM) of the same compound?
A: 2%

Q: And the inhibition at 1000 µM (human NaV1.6 [6]; hNaV1.6, 1 mM)?
A: 8%

Q: For `Nc1nnc(-c2cccc(Cl)c2Cl)c(N)n1` [Lamotrigine, reference compound], which “protection (increase in latency) against MES-induced tonic hindlimb seizures, dose-response” value (male CD-1 mice [2]) is on record?
A: dose-dependent protection

Q: And the “mice protected against MES-induced tonic hindlimb seizures” value (male CD-1 mice [2]; LTG 10 mg/kg, highest dose tested)?
A: eight of 12

Q: What about the ED50 (male CD-1 mice [2]) of the same compound?
A: 3.4 mg/kg

Q: What about the “sLMA distance moved, dose-response” value (male CD-1 mice [5]) of the same compound?
A: dose-dependent reductions

Q: What about the “Tolerability (sLMA) TD50” value (male CD-1 mice [5]) of the same compound?
A: 26.5 mg/kg

Q: What does the source list for `NC(=O)O[C@@H](Cn1ncnn1)c1ccccc1Cl` [Cenobamate]?
A: Ratio to Pers. INa (Peak INa VDB / persistent INa) (human NaV1.6 [1]): 0.9; IC50 (human NaV1.6 [1]): 66.7 µM; Ratio to Pers. INa (Peak INa TB / persistent INa) (human NaV1.6 [3]; hNaV1.6): 24; IC50 (human NaV1.6 [3]): 1720 µM; IC50 (human NaV1.6 [4]): 71.7 µM; Ratio to Peak INa (TB) (UDB-10 Hz) (human NaV1.6 [6]; hNaV1.6): 2.3; Ratio to Pers. INa (Peak INa UDB-10 Hz / persistent INa) (human NaV1.6 [6]; hNaV1.6): 11; IC50 (human NaV1.6 [6]; hNaV1.6, 10 Hz): 749 µM

Q: For `NC(=O)N1c2ccccc2CC(=O)c2ccccc21` [Oxcarbazepine], which “Ratio to Pers. INa (Peak INa VDB / persistent INa)” value (human NaV1.6 [1]) is on record?
A: 0.3

Q: What about the IC50 (human NaV1.6 [1]) of the same compound?
A: 42 µM

Q: And the “exposure when administered concomitantly with Compound 1 vs alone” value [7]?
A: appeared to be similar

Q: And the “patients in whom TEAEs were observed (number)” value (healthy participants)?
A: 3

Q: And the “patients in whom TEAEs were observed (percent)” value (healthy participants)?
A: 75%

Q: What about the “Ratio to Pers. INa (Peak INa TB / persistent INa)” value (human NaV1.6 [3]; hNaV1.6) of the same compound?
A: 8

Q: What about the IC50 (human NaV1.6 [3]) of the same compound?
A: 1040 µM

Q: What about the IC50 (human NaV1.6 [4]) of the same compound?
A: 124 µM

Q: What does the source list for `O=C1NC(=O)C(c2ccccc2)(c2ccccc2)N1` [Phenytoin]?
A: Ratio to Pers. INa (Peak INa VDB / persistent INa) (human NaV1.6 [1]): 0.8; IC50 (human NaV1.6 [1]): 47.8 µM; IC50 (human NaV1.6 [4]): 59.8 µM; Ratio to Pers. INa (Peak INa UDB-10 Hz / persistent INa) (human NaV1.6 [6]; hNaV1.6): 15; IC50 (human NaV1.6 [6]; hNaV1.6, 10 Hz): 877 µM

Q: Which “Ratio to Pers. INa (Peak INa VDB / persistent INa)” value (human NaV1.6 [1]) does the source give for `COC[C@@H](NC(C)=O)C(=O)NCc1ccccc1` [Lacosamide] here?
A: 0.3

Q: What about the IC50 (human NaV1.6 [1]) of the same compound?
A: 269 µM

Q: What about the IC50 (human NaV1.6 [4]) of the same compound?
A: 833 µM

Q: What about the “Ratio to Pers. INa (Peak INa UDB-10 Hz / persistent INa)” value (human NaV1.6 [6]; hNaV1.6) of the same compound?
A: 0.8

Q: What about the IC50 (human NaV1.6 [6]; hNaV1.6, 10 Hz) of the same compound?
A: 682 µM

Reference: US12582652B2, “3-(ethoxydifluoromethyl)-6-(5-fluoro-6-(2,2,2-trifluoroethoxy)pyridin-3-yl)-[1,2,4]triazolo[4,3-a]pyrazine as an ion channel modulator” (Praxis Precision Medicines, Inc., priority 2022, dated 2026)
